Results reported in paper PMC12096669, “Structural isomerisation affects the antitubercular activity of adamantyl-isoxyl adducts” (Journal of Enzyme Inhibition and Medicinal Chemistry, 2025).
Converted amounts (≈) assume the structure as drawn. Like-named read-outs stand apart in the source and are kept apart here.

Key:
[1] = tested on: M. smegmatis mc^2155 mmpL3 knockout strain expressing MmpL3-Mtb-G253E; set-up: method as in PMID 22344175; settings: M. smegmatis mc^2155, MmpL3-Mtb-G253E in a mmpL3 knockout strain; cited from earlier work
[2] = tested on: Mtb mc^27092 pMV261-mmpL3; test: microbe, parasite or virus in culture; format: cell-based, Mycobacterium tuberculosis; settings: for MIC: Mycobacterium tuberculosis, read-out: Mtb MIC95
[3] = tested on: Mtb mc^27092 pMV261-hadABC; test: microbe, parasite or virus in culture; format: cell-based; settings: Mycobacterium tuberculosis, read-out: Mtb MIC95
[4] = tested on: Mtb mc^27092 pMV261-pks13; test: microbe, parasite or virus in culture; format: cell-based; settings: Mycobacterium tuberculosis, read-out: Mtb MIC95
Mtb mc^28245 pMV261 = test: microbe, parasite or virus in culture; format: cell-based
Mtb mc^28250 pMV261 = test: microbe, parasite or virus in culture; format: cell-based
[5] = tested on: Mtb mc^27092 pMV261- ethA; test: microbe, parasite or virus in culture; format: cell-based; settings: Mycobacterium tuberculosis, read-out: Mtb MIC95
Mtb mc^28256 pMV261 = test: microbe, parasite or virus in culture; format: cell-based; settings: Mycobacterium tuberculosis, read-out: Mtb MIC95
Mtb mc^28247 pMV261 = test: microbe, parasite or virus in culture; format: cell-based
[6] = tested on: Mtb mc^27092 pMV261-desA3; test: microbe, parasite or virus in culture; format: cell-based; settings: Mycobacterium tuberculosis, read-out: Mtb MIC95
[7] = Mycobacterium tuberculosis; read-out: Mtb MIC95
[8] = Mycobacterium tuberculosis, read-out: Mtb MIC95

SMILES	increase in the resistance [1] [fold]	MIC ([2]; mc^27092 pMV261-mmpL3, REMA) [µg/mL]	MIC ([3]; mc^27092 pMV261-hadABC, REMA) [µg/mL]	MIC ([4]; mc^27092 pMV261-pks13, REMA) [µg/mL]	MIC (Mtb mc^28245 pMV261; [7]) [µg/mL]	MIC (Mtb mc^28250 pMV261; [7]) [µg/mL]	MIC ([5]; mc^27092 pMV261- ethA, REMA) [µg/mL]	MIC (Mtb mc^28256 pMV261; mc^28256 pMV261, REMA) [µg/mL]	MIC (Mtb mc^28247 pMV261; [7]) [µg/mL]	MIC ([6]; mc^27092 pMV261-desA3, REMA) [µg/mL]	increase in resistance on overexpression of MmpL3 [2] [fold]	MIC [2] [µg/mL]	MIC [3] [µg/mL]	MIC [4] [µg/mL]	MIC (Mtb mc^28245 pMV261; [8]) [µg/mL]	MIC (Mtb mc^28250 pMV261; [8]) [µg/mL]	MIC [5] [µg/mL]	MIC (Mtb mc^28256 pMV261) [µg/mL]	MIC (Mtb mc^28247 pMV261; [8]) [µg/mL]	MIC [6] [µg/mL]
O=C(Nc1ccc(F)c(F)c1F)NC1C2CC3CC(C2)CC1C3 (stereo not shown) [AU1235]	2	–	–	–	–	–	–	–	–	–	–	–	–	–	–	–	–	–	–	–
CC(C)CCOc1ccc(NC(=S)NC23CC4CC(CC(C4)C2)C3)cc1 [Ad-1-ISO, 1-((3s,5s,7s)-adamantan-1-yl)-3–(4-(isopentyloxy)phenyl)thiourea]	–	1.16 (≈ 3.11 µM)	1.09 (≈ 2.93 µM)	1.11 (≈ 2.98 µM)	1.11 (≈ 2.98 µM)	1.12 (≈ 3.01 µM)	1.2 (≈ 3.22 µM)	1.13 (≈ 3.03 µM)	1.08 (≈ 2.9 µM)	1.07 (≈ 2.87 µM)	–	–	–	–	–	–	–	–	–	–
CC(C)CCOc1ccc(NC(=S)NC2C3CC4CC(C3)CC2C4)cc1 (stereo not shown) [Ad-2-ISO, 1-((1r,3r,5r,7r)-adamantan-2-yl)-3–(4-(isopentyloxy)phenyl)thiourea]	–	4.2 (≈ 11.3 µM)	4.34 (≈ 11.6 µM)	3.37 (≈ 9.05 µM)	3.55 (≈ 9.53 µM)	3.1 (≈ 8.32 µM)	2.63 (≈ 7.06 µM)	2.9 (≈ 7.78 µM)	2.5 (≈ 6.71 µM)	2.93 (≈ 7.86 µM)	~2	–	–	–	–	–	–	–	–	–
CC[C@@H](CO)NCCN[C@@H](CC)CO [EMB, Ethambutol]	–	2.02 (≈ 9.89 µM)	2.54 (≈ 12.4 µM)	2 (≈ 9.79 µM)	1.82 (≈ 8.91 µM)	1.89 (≈ 9.25 µM)	2.09 (≈ 10.2 µM)	1.88 (≈ 9.2 µM)	1.97 (≈ 9.64 µM)	2.95 (≈ 14.4 µM)	–	–	–	–	–	–	–	–	–	–
CCc1cc(C(N)=S)ccn1 [ETH, ethionamide]	–	–	–	–	–	–	–	–	–	–	–	0.99 (≈ 5.95 µM)	2.02 (≈ 12.2 µM)	1.01 (≈ 6.08 µM)	0.98 (≈ 5.89 µM)	1.02 (≈ 6.14 µM)	0.65 (≈ 3.91 µM)	1.08 (≈ 6.5 µM)	0.98 (≈ 5.89 µM)	1.02 (≈ 6.14 µM)
NNC(=O)c1ccncc1 [INH, isoniazid]	–	0.04 (≈ 0.292 µM)	0.04 (≈ 0.292 µM)	0.04 (≈ 0.292 µM)	–	–	0.04 (≈ 0.292 µM)	–	0.04 (≈ 0.292 µM)	0.04 (≈ 0.292 µM)	–	–	–	–	–	–	–	–	–	–
CC(C)CCOc1ccc(NC(=S)Nc2ccc(OCCC(C)C)cc2)cc1 [ISO, 4,4′-diisoamyloxydiphenylthiourea]	–	0.21 (≈ 0.524 µM)	0.71 (≈ 1.77 µM)	0.34 (≈ 0.849 µM)	0.18 (≈ 0.449 µM)	0.2 (≈ 0.499 µM)	0.09 (≈ 0.225 µM)	0.19 (≈ 0.474 µM)	0.34 (≈ 0.849 µM)	0.26 (≈ 0.649 µM)	–	–	–	–	–	–	–	–	–	–
CC(=O)NC[C@H]1CN(c2ccc(N3CCOCC3)c(F)c2)C(=O)O1 [LZD, linezolid]	–	0.86 (≈ 2.55 µM)	0.72 (≈ 2.13 µM)	0.93 (≈ 2.76 µM)	0.9 (≈ 2.67 µM)	0.77 (≈ 2.28 µM)	–	0.66 (≈ 1.96 µM)	0.88 (≈ 2.61 µM)	–	–	–	–	–	–	–	–	–	–	–
CO[C@H]1/C=C/O[C@@]2(C)Oc3c(C)c(O)c4c(O)c(c(/C=N/N5CCN(C)CC5)c(O)c4c3C2=O)NC(=O)/C(C)=C\C=C\[C@H](C)[C@H](O)[C@@H](C)[C@@H](O)[C@@H](C)[C@H](OC(C)=O)[C@@H]1C [RIF, rifampicin]	–	0.06 (≈ 0.0729 µM)	0.06 (≈ 0.0729 µM)	0.06 (≈ 0.0729 µM)	0.05 (≈ 0.0608 µM)	–	0.06 (≈ 0.0729 µM)	–	–	0.06 (≈ 0.0729 µM)	–	–	–	–	–	–	–	–	–	–
CC(C)=CCC/C(C)=C/CNCCNC1C2CC3CC(C2)CC1C3 (stereo not shown) [SQ109, N-Adamantan-2-yl-N’-((E)-3,7-dimethylocta-2,6-dienyl)ethane-1,2-diamine]	–	0.74 (≈ 2.24 µM)	0.31 (≈ 0.938 µM)	0.31 (≈ 0.938 µM)	0.31 (≈ 0.938 µM)	0.3 (≈ 0.908 µM)	–	0.27 (≈ 0.817 µM)	0.3 (≈ 0.908 µM)	–	–	–	–	–	–	–	–	–	–	–
